The source of these data is patent US9661853B2, “Molecules having pesticidal utility, and intermediates, compositions, and processes, related thereto” (Dow AgroSciences LLC, priority 2015, dated 2017).

For series [1], the system named is Beet Armyworm (Spodoptera exigua, LAPHEG). Description: Bioassay on Beet Armyworm (BAW), 128-well diet tray assay. The format is in vivo. The conditions noted are these: 168 h, 50 μg/cm^2 on artificial diet, second instar larvae, 25° C., five to seven days, average of eight wells, read-out: BAW % Control (or Mortality) rating. The protocol:
(§1) Bioassays on Beet Armyworm (Spodoptera exigua, LAPHEG) (“BAW”) and Cabbage Looper (Trichoplusia ni, TRIPNI) (“CL”)
(§2) Certain molecules disclosed in this document were tested against BAW and CL using procedures described in the following examples. In the reporting of the results, the “BAW & CL Rating Table” was used (See Table Section).
Bioassays on BAW were conducted using a 128-well diet tray assay. One to five second instar BAW larvae were placed in each well (3 mL) of the diet tray that had been previously filled with 1 mL of artificial diet to which 50 μg/cm^2 of the test molecule (dissolved in 50 μL of 90:10 acetone-water mixture) had been applied (to each of eight wells) and then allowed to dry. Trays were covered with a clear self-adhesive cover, vented to allow gas exchange, and held at 25° C., 14:10 light-dark for five to seven days. Percent mortality was recorded for the larvae in each well; activity in the eight wells was then averaged. The results are indicated in the table entitled “Table ABC: Biological Results” (See Table Section).

For series [2], the system named is Cabbage Looper (Trichoplusia ni, TRIPNI). Put plainly: Bioassay on Cabbage Looper (CL), 128-well diet tray assay. Format: in vivo. Particulars: 168 h, 50 μg/cm^2 on artificial diet, second instar larvae, 25° C., five to seven days, average of eight wells, read-out: CL % Control (or Mortality) rating. The protocol:
as §1, §2
Bioassays on CL were conducted using a 128-well diet tray assay. One to five second instar CL larvae were placed in each well (3 mL) of the diet tray that had been previously filled with 1 mL of artificial diet to which 50 μg/cm^2 of the test molecule (dissolved in 50 μL of 90:10 acetone-water mixture) had been applied (to each of eight wells) and then allowed to dry. Trays were covered with a clear self-adhesive cover, vented to allow gas exchange, and held at 25° C., 14:10 light-dark for five to seven days. Percent mortality was recorded for the larvae in each well; activity in the eight wells was then averaged. The results are indicated in the table entitled “Table ABC: Biological Results” (See Table Section).

Series [3] deals with Yellow Fever Mosquito (Aedes aegypti, AEDSAE). Format: in vivo. Particulars: 4000 ppm DMSO master solution diluted, about 1 day-old larvae, room temperature, scored after 3 days. On the procedure:
Bioassays on Yellow Fever Mosquito (Aedes aegypti, AEDSAE) (“YFM”)
Certain molecules disclosed in this document were tested against YFM using procedures described in the following paragraph. In the reporting of the results, the “YFM Rating Table” was used (See Table Section).
Master plates containing 400 μg of a molecule dissolved in 100 μL of dimethyl sulfoxide (DMSO) (equivalent to a 4000 ppm solution) are used. A master plate of assembled molecules contains 15 μL per well. To this plate, 135 μL of a 90:10 water/acetone mixture is added to each well. A robot (Biomek® NXP Laboratory Automation Workstation) is programmed to dispense 15 μL aspirations from the master plate into an empty 96-well shallow plate (“daughter” plate). There are 6 reps (“daughter” plates) created per master. The created “daughter” plates are then immediately infested with YFM larvae.
The day before plates are to be treated, mosquito eggs are placed in Millipore water containing liver powder to begin hatching (4 g into 400 mL). After the “daughter” plates are created using the robot, they are infested with 220 μL of the liver powder/larval mosquito mixture (about 1 day-old larvae). After plates are infested with mosquito larvae, a non-evaporative lid is used to cover the plate to reduce drying. […] After 3 days, each well is observed and scored based on mortality. […]

Structures are written as SMILES.

The compound `Cc1ccc(C(C)C)c(N2C(=O)CS/C2=N\C(=O)Nc2ccc(CNc3ncn(-c4ccc(OC(F)(F)F)cc4)n3)cc2F)c1` registered a melting point of 236 to 238 °C.
Same read-out and setting: with `CCCc1ccc(C)cc1N1C(=O)CS/C1=N\C(=O)Nc1ccc(CN(C)c2ncn(-c3ccc(OC(F)(F)F)cc3)n2)cn1` the figure was 184 °C (dec.).
Still for that read-out and setting: with `CCCc1ccc(C)cc1N1C(=O)CS/C1=N\C(=O)Nc1ccc(CN(C)c2ncn(-c3ccc(OC(F)(F)F)cc3)n2)cc1F` the figure was 174 to 176 °C; with `COCc1ccc(C)cc1N1C(=O)CS/C1=N\C(=O)Nc1ccc(CNc2ncn(-c3ccc(OC(F)(F)F)cc3)n2)cc1F`, 205 to 207 °C.
Regarding `CCCc1ccc(C)cc1N1C(=O)CS/C1=N\C(=O)Nc1ccc(CNc2ncn(-c3ccc(OC(F)(F)F)cc3)n2)cc1` [F3, (Z)-1-(3-(5-Methyl-2-propylphenyl)-4-oxothiazolidin-2-ylidene)-3-(4-(((1-(4-(trifluoromethoxy)phenyl)-1H-1,2,4-triazol-3-yl)amino)methyl)phenyl)urea], the mortality at 50 µg/cm2 in series [1] and in series [2] was 50 to 100% each time. Moreover, the “YFM % Control (or Mortality) rating” value in series [3] is recorded as “A (80-100)”.
Turning to `CCCc1ccc(C)cc1N1C(=O)CS/C1=N\C(=O)Nc1ccc(CNc2ncn(-c3ccc(OC(F)(F)F)cc3)n2)cc1F` [F5, (Z)-1-(2-Fluoro-4-(((1-(4-(trifluoromethoxy)phenyl)-1H-1,2,4-triazol-3-yl)amino)methyl)phenyl)-3-(3-(5-methyl-2-propylphenyl)-4-oxothiazolidin-2-ylidene)urea], the mortality at 50 µg/cm2 in series [1] and in series [2] was 50 to 100% in each case. Besides, in series [3], the “YFM % Control (or Mortality) rating” value is recorded as “A (80-100)”.
`Cc1ccc(C(C)C)c(N2C(=O)CS/C2=N\C(=O)Nc2ccc(NCc3ncn(-c4ccc(OC(F)(F)F)cc4)n3)cn2)c1` [F47, (Z)-1-(3-(2-isopropyl-5-methylphenyl)-4-oxothiazolidin-2-ylidene)-3-(5-(((1-(4-(trifluoromethoxy)phenyl)-1H-1,2,4-triazol-3-yl)methyl)amino)pyridin-2-yl)urea]: the mortality at 50 µg/cm2 in series [1] and in series [2] was 50 to 100% in each case.

The term melting point denotes the temperature of the solid-liquid transition. What is called mortality is the percentage killed.
